# pKd: −log10 of the molar value.
# What was measured:
# [1] = tested on: SKH1-hrBR or hairless mouse; test: topical skin irritation test in hairless mice; assay type: in vivo; details: topical in acetone, once daily days 1 through 5, mean ±SD, range 0-21
# From the text: Mice were housed individually throughout the dosing period.
# Doses are disclosed as nmol/25 g.
# The grading scale used is as follows:
# Values can range from 0-9.
# Values can range from 0-8.
# RARγ = molecular target: T1, RARγ (Homo sapiens, UniProt P13631); test: ligand binding assay; details: last line of the stacked cell, read-out: RAR Kd γ
# T1 sequence (P13631 1-454): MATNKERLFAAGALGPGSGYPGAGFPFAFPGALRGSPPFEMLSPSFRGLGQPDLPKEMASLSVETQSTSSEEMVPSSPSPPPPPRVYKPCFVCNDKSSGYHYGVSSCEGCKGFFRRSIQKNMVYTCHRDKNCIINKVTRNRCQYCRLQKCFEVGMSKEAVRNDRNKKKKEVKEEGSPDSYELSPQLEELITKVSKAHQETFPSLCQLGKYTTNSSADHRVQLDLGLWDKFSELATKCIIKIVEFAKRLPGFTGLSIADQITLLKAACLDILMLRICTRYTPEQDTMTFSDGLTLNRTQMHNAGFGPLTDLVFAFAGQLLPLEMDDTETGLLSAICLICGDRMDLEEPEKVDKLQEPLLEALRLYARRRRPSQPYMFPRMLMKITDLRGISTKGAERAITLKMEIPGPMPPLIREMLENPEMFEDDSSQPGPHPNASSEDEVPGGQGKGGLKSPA
# From the text: (§1) Assays described below measure the ability of a compound to bind to, and/or activate various retinoid receptor subtypes. When in these assays a compound binds to a given receptor subtype and activates the transcription of a reporter gene through that subtype, then the compound is considered an agonist of that receptor subtype. […] In the below described assays the ability of the compounds to bind to RARα, RARβ, RARγ, RXRα, RXRβ and RXRγ receptors, and the ability or inability of the compounds to activate transcription of a reporter gene through these receptor subtypes can be tested.
# (§2) The results obtained in this assay are expressed in EC50 numbers, as they are also in the chimeric receptor transactivation assay. The results of ligand binding assay are expressed in Kd numbers.
# RARβ = molecular target: T2, RARβ (Homo sapiens, UniProt P10826); test: ligand binding assay; details: last line of the stacked cell, read-out: RAR Kd β
# T2 sequence (P10826 1-455): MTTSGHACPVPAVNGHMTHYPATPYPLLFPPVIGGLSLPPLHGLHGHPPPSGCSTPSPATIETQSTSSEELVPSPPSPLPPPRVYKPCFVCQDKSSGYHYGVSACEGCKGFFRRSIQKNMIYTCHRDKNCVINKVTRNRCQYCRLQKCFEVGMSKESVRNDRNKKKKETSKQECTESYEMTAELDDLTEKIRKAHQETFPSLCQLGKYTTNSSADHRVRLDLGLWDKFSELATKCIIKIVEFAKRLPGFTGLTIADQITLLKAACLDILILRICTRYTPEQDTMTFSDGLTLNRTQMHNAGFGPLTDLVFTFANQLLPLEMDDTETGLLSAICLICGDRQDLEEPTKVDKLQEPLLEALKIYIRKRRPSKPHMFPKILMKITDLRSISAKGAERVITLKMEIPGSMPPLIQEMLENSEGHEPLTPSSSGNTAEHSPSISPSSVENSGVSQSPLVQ
# From the text: as §1, §2
compound,measurement,setting,value
"CN(C1CC1)C1CCC(C)(C)c2cc(C#Cc3ccc(CC(=O)O)cc3)ccc21 (stereo not shown) [Compound 8, 4-[(5-(Cyclopropyl-methyl-amino)-8,8-dimethyl-5,6,7,8-tetrahydro-naphthalene-2-yl-ethynyl)-phenyl]-acetic acid]",Cutaneous Toxicity Score (Blackjack Score),[1]; 100 nmole (nmol/25 g),5 ± 2
same,Cutaneous Toxicity Score (Blackjack Score),[1]; 300 nmole (nmol/25 g),8 ± 3
same,Cutaneous Toxicity Score (Blackjack Score),[1]; 1000 nmole (nmol/25 g),12 ± 1
"CCCN(CCC)C1(c2ccc(C#Cc3ccc(C(=O)O)cc3)cc2)CC1 [Compound 110, 4-[4-(1-Dipropylamino-cyclopropyl)-phenylethynyl]-benzoic acid]",pKd,RARγ,< 5.00
CC1(C)CC2(CC2)Oc2c(C3CC3)cc(C#Cc3ccc(CC(=O)O)c(F)c3)cc21 [Compound 50],Cutaneous Toxicity Score (Blackjack Score),[1]; 100 nmole (nmol/25 g),1 ± 0
same,Cutaneous Toxicity Score (Blackjack Score),[1]; 300 nmole (nmol/25 g),3 ± 2
same,Cutaneous Toxicity Score (Blackjack Score),[1]; 1000 nmole (nmol/25 g),8 ± 2
"CC1(C)CC(C)(C)c2cc(C#Cc3ccc(CC(=O)O)c(F)c3)cc(C3CC3)c2O1 [Compound 38, [4-(8-Cyclopropyl-2,2,4,4-tetramethyl-chroman-6-yl-ethynyl)-2-fluorophenyl] acetic acid]",Cutaneous Toxicity Score (Blackjack Score),[1]; 100 nmole (nmol/25 g),1 ± 1
same,Cutaneous Toxicity Score (Blackjack Score),[1]; 1000 nmole (nmol/25 g),10 ± 1
"CC1(C)CC2(CC2)Oc2c(C3CC3)cc(C(=O)Oc3ccc(CC(=O)O)cc3)cc21 [Compound 58, Spiro[2H-1-benzopyran-2,1′-cyclopropane]-6-carboxylic acid, 8-cyclopropyl-3,4-dihydro-4,4-dimethyl-, 4-(carboxymethyl)phenyl ester]",Cutaneous Toxicity Score (Blackjack Score),[1]; 100 nmole (nmol/25 g),0 ± 0
same,Cutaneous Toxicity Score (Blackjack Score),[1]; 300 nmole (nmol/25 g),0 ± 0
same,Cutaneous Toxicity Score (Blackjack Score),[1]; 1000 nmole (nmol/25 g),0 ± 0
"CC1(C)CCC(=O)c2ccc(C#Cc3ccc(CC(=O)O)cc3)cc21 [Compound 5, 4-[(8,8-Dimethyl-5-oxo-5,6,7,8-tetrahydro-naphthalene-2-yl-ethynyl)-phenyl]-acetic acid]",Cutaneous Toxicity Score (Blackjack Score),[1]; 100 nmole (nmol/25 g),0
same,Cutaneous Toxicity Score (Blackjack Score),[1]; 1000 nmole (nmol/25 g),6 ± 3
"CC1(C)CC(C)(C)c2cc(C(=O)Oc3ccc(CC(=O)O)cc3)ccc2O1 [Compound 46, 2,2,4,4-Tetramethyl-chroman-6-carboxylic acid 4-(carboxymethyl)phenyl ester]",pKd,RARγ,< 5.00
same,pKd,RARβ,< 5.00
"Cc1cc(C#Cc2ccc(CC(=O)O)cc2)ccc1Cn1ccnc1 [Compound 121, [4-(4-Imidazol-1-yl-methyl-3-methyl-phenylethynyl)-phenyl]-acetic acid]",pKd,RARβ,< 4.00
"CC1(C)CN(C2CC2)Cc2ccc(C#Cc3ccc(CC(=O)O)c(F)c3)cc21 [Compound 22, [4-(2-Cyclopropyl-4,4-dimethyl-1,2,3,4-tetrahydro-isoquinolin-6-yl-ethynyl)-2-fluoro-phenyl]-acetic acid]",Cutaneous Toxicity Score (Blackjack Score),[1]; 100 nmole (nmol/25 g),0 ± 0
same,Cutaneous Toxicity Score (Blackjack Score),[1]; 300 nmole (nmol/25 g),0 ± 0
same,Cutaneous Toxicity Score (Blackjack Score),[1]; 1000 nmole (nmol/25 g),1 ± 1
"O=C(O)c1ccc(C#Cc2ccc(C3(N(Cc4ccccc4)Cc4ccccc4)CC3)cc2)cc1 [Compound 114, 4-[4-(1-Dibenzylamino-cyclopropyl)-phenylethynyl]-benzoic acid]",pKd,RARβ,< 5.00
"CCN(Cc1ccc(C#Cc2ccc(CC(=O)O)cc2)cc1C)C1CC1 [Compound 131, (4-{4-[(Cyclopropyl-ethyl-amino)-methyl]-3-methyl-phenylethynyl}-phenyl)-acetic acid]",Cutaneous Toxicity Score (Blackjack Score),[1]; 100 nmole (nmol/25 g),1 ± 1
same,Cutaneous Toxicity Score (Blackjack Score),[1]; 300 nmole (nmol/25 g),0 ± 1
same,Cutaneous Toxicity Score (Blackjack Score),[1]; 1000 nmole (nmol/25 g),1 ± 1
"CC1(C)CC2(CC2)Oc2c(C3CC3)cc(C#Cc3ccc(CC(=O)O)cc3)cc21 [Compound 48, Benzeneacetic acid, 4-[(8-cyclopropyl-3,4-dihydro-4,4-dimethylspiro[2H-1-benzopyran-2,1′-cyclopropane]-6-yl)ethynyl]-]",Cutaneous Toxicity Score (Blackjack Score),[1]; 100 nmole (nmol/25 g),1 ± 1
same,Cutaneous Toxicity Score (Blackjack Score),[1]; 300 nmole (nmol/25 g),3 ± 1
same,Cutaneous Toxicity Score (Blackjack Score),[1]; 1000 nmole (nmol/25 g),7 ± 2
"CN(C1CC1)C1CCC(C)(C)c2cc(C#Cc3ccc(CC(=O)O)c(F)c3)ccc21 (stereo not shown) [Compound 18, [4-(5-(Cyclopropyl-methyl-amino)-8,8-dimethyl-5,6,7,8-tetrahydro-naphthalene-2-yl-ethynyl)-2-fluoro-phenyl]-acetic acid]",Cutaneous Toxicity Score (Blackjack Score),[1]; 100 nmole (nmol/25 g),0 ± 0
same,Cutaneous Toxicity Score (Blackjack Score),[1]; 300 nmole (nmol/25 g),5 ± 2
same,Cutaneous Toxicity Score (Blackjack Score),[1]; 1000 nmole (nmol/25 g),10 ± 2
"CC1(C)CCC(=O)c2ccc(C#Cc3ccc(CC(=O)O)c(F)c3)cc21 [Compound 15, [2-Fluoro-4-(8,8-dimethyl-5-oxo-5,6,7,8-tetrahydro-naphthalene-2-yl-ethynyl)phenyl]-acetic acid]",Cutaneous Toxicity Score (Blackjack Score),[1]; 100 nmole (nmol/25 g),1 ± 1
same,Cutaneous Toxicity Score (Blackjack Score),[1]; 1000 nmole (nmol/25 g),5 ± 2
"CC1(C)CCC(n2ccnc2)c2ccc(C#Cc3ccc(CC(=O)O)cc3)cc21 (stereo not shown) [Compound 137, [4-(5-Imidazol-1-yl-8,8-dimethyl-5,6,7,8-tetrahydro-naphthalen-2-yl-ethynyl)-phenyl]-acetic acid]",Cutaneous Toxicity Score (Blackjack Score),[1]; 100 nmole (nmol/25 g),1 ± 1
same,Cutaneous Toxicity Score (Blackjack Score),[1]; 300 nmole (nmol/25 g),1 ± 1
same,Cutaneous Toxicity Score (Blackjack Score),[1]; 1000 nmole (nmol/25 g),5 ± 2
"CC1(C)CC(C)(C)c2cc(C#Cc3ccc(CC(=O)O)cc3)cc(C3CC3)c2O1 [Compound 36, [4-(8-Cyclopropyl-2,2,4,4-tetramethyl-chroman-6-yl-ethynyl)phenyl]acetic acid]",Cutaneous Toxicity Score (Blackjack Score),[1]; 100 nmole (nmol/25 g),1 ± 1
same,Cutaneous Toxicity Score (Blackjack Score),[1]; 1000 nmole (nmol/25 g),11 ± 0

# Source: patent publication US6369261B1, “Compounds having activity as inhibitors of cytochrome P450RAI” (Allergan Sales, Inc., priority 2000, dated 2002)
